Data on two compounds can be found in PMC7339578, “Multiple circulating alkaloids and saponins from intravenous Kang-Ai injection inhibit human cytochrome P450 and UDP-glucuronosyltransferase isozymes: potential drug–drug interactions” (Chinese Medicine, 2020).

One data set concerns the target T1, CYP2B6 (Homo sapiens, UniProt P20813).
T1 sequence (P20813 1-491): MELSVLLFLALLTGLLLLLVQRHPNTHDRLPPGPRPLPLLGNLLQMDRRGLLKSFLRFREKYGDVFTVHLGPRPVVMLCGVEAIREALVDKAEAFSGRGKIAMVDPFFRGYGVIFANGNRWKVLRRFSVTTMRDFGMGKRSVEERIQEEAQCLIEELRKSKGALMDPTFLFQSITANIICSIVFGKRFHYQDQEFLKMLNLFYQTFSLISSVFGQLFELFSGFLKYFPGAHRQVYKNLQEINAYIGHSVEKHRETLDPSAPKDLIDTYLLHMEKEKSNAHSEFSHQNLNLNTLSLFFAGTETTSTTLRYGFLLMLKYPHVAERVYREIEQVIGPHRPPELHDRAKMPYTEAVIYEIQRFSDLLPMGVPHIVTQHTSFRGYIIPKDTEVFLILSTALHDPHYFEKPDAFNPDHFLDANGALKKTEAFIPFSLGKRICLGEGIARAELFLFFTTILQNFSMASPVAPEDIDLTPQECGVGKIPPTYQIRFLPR
The data set can be described thus: Inhibition of recombinant CYP2B6 (probe bupropion). As to conditions: mean ± SD of triplicate, unit not given (IC50 classes in μM). It is filed as in vitro ADME. On the procedure: (§1) In this study, phenacetin (100 μM), coumarin (100 μM), bupropion (100 μM), paclitaxel (60 μM), tolbutamide (200 μM), mephenytoin (100 μM), chlorzoxazone (200 μM) and nifedipine (40 μM) have been used as the probe substrates for CYP1A2, 2A6, 2B6, 2C8, 2C9, 2C19, 2E1 and 3A4, respectively.

A further data set has as its target T2, CYP2C8 (Homo sapiens, UniProt P10632).
T2 sequence (P10632 1-490): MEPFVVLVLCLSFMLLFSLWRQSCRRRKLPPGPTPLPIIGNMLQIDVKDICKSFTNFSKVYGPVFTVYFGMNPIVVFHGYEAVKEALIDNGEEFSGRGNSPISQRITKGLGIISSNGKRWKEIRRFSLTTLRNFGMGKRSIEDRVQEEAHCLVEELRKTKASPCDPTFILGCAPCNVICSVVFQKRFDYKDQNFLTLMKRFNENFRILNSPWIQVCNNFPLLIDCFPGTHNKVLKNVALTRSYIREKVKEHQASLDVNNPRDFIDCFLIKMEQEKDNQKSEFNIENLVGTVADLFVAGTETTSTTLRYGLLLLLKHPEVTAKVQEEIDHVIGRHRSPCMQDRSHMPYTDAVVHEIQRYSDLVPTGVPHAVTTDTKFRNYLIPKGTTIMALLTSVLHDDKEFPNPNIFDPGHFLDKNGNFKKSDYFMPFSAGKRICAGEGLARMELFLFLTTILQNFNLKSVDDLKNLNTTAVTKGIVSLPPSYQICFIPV
The data set can be described thus: Inhibition of recombinant CYP2C8 (probe paclitaxel). It is filed as in vitro ADME. As to conditions: mean ± SD of triplicate, unit not given (IC50 classes in μM). As to the method:
as §1

The next data set has as its target CYP2E1 (Homo sapiens, UniProt P05181). The data set can be described thus: Inhibition of recombinant CYP2E1 (probe chlorzoxazone). As to the method: Phase I incubation system (100 μL) contained Tris–HCl buffer (50 mM, pH = 7.4), MgCl2 (5 mM), each CYP isozyme, specific substrates, circulating compounds and NADPH (1 mM) as prescribed previously. After incubation (37 °C, 60 min), the reaction was terminated by ice-cold acetonitrile (100 μL), following by centrifugation at 13,800g for 10 min. The supernatant (8 μL) was acquired for ultra-high-performance liquid chromatography (UHPLC) system (Waters, Manchester, UK) analysis.
After optimization of incubation conditions (Additional file 1: Fig. S1), the substrates were incubated with each CYP isozyme at different protein concentrations (0.05 mg/mL for CYP1A2 and 3A4; 0.1 mg/mL for CYP2A6, 2B6, 2C8, 2C9, 2C19 and 2E1) in the absence (control) and presence of different mixture or herbal compounds (Kang-Ai injection and samples that Kang-Ai injection was diluted 10 times; 1, 10, and 100 μM for matrine and oxymatrine; 0.1, 1, 10 and 100 μM for astragalosides and ginsenosides).
The half-inhibition concentration (IC50) values were determined by non-linear regression analysis. […] The inhibition mechanism towards corresponding CYP and UGT isoforms were further explored.
The inhibition constant (Ki) values were obtained by multiple concentrations of substrates in the absence or presence of multiple concentrations of herbal compounds as described previously. […] (1)–(3), respectively. The model with the smallest Akaike information criterion (AIC) and Schwartz information criterion (SC) values was considered as the best model, following the obtained appropriate Ki values. Model fitting and parameter estimation were performed using Graphpad Prism V5 software (SanDiego, CA).

The nature of data set [1]: Stability tests of analytes in rat plasma QC samples. The class given is in vitro ADME. On the procedure: […] The dilution integrity was investigated by analyzing six replicate samples with each analyte, and each analyte were diluted 10-fold with blank rat matrix. Furthermore, the diluted samples were analyzed using freshly prepared calibration curve to calculate RE and RSD, which should be no more than ± 15% as criterion.

[2] abbreviates: rat plasma, nominal conc. 20 nM.
Where [3] appears, read: rat plasma, nominal conc. 100 nM.
Setting [4] is: rat plasma, nominal conc. 400 nM.

Each structure is given as a SMILES string. Like-named read-outs stand apart in the source and are kept apart here.

CYP2E1, sequence (P05181 whole entry): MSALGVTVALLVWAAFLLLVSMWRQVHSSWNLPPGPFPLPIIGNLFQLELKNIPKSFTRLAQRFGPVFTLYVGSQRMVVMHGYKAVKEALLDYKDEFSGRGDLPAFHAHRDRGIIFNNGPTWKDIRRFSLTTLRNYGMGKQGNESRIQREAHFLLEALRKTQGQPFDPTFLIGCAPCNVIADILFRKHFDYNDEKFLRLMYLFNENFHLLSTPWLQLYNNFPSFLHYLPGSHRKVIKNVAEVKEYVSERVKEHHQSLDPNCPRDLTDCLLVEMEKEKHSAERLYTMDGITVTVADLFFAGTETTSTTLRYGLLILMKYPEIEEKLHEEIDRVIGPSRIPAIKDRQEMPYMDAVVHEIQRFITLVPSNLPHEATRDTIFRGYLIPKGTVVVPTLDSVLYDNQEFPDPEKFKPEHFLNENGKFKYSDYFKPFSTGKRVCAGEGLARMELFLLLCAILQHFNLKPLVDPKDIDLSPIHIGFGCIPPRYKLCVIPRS

On to `CC(C)=CCC[C@](C)(O)[C@H]1CC[C@]2(C)[C@@H]1[C@H](O)C[C@@H]1[C@@]3(C)CC[C@H](O)C(C)(C)[C@@H]3[C@@H](O[C@@H]3O[C@H](CO)[C@@H](O)[C@H](O)[C@H]3O[C@@H]3O[C@H](CO)[C@@H](O)[C@H](O)[C@H]3O)C[C@]12C` [Compound C7, Ginsenoside Rf], for which the IC50 at CYP2B6 (recombinant isozyme, read-out: IC50 towards CYP2B6) is more than 100 µM. Moreover, the IC50 at CYP2C8 (recombinant isozyme, read-out: IC50 towards CYP2C8) is more than 100 µM. The IC50 on CYP2E1 was more than 100 µM. Moreover, in data set [1] (setting [2]), the “At -80 °C for 48 h, Mean±SD” value came out at 21.60 ± 0.37 nM; the “At -80 °C for 48 h, RE” value worked out at 9.41%; the “Extracted samples at 8 °C for 18 h, Mean±SD” value (from here on “Extracted samples … Mean±SD”) stood at 19.73 ± 2.64 nM; the “Extracted samples at 8 °C for 18 h, RE” value is reported as 13.56%. For the same compound, in data set [1] (setting [2]), the “Short-term stability at room temperature for 6 h, Mean±SD” value (shortened to “Short-term stability … Mean±SD”) was determined as 20.44 ± 2.11 nM; the “Short-term stability at room temperature for 6 h, RE” value (from here on “Short-term stability … for 6 h, RE”) is given as 11.15%; the “Three freeze-thaw cycles (-80 °C ↔ 23 °C), Mean±SD” value (shortened to “Three freeze-thaw cycles … Mean±SD”) is 22.07 ± 0.56 nM; the “Three freeze-thaw cycles (-80 °C ↔ 23 °C), RE” value is 13.46%. In data set [1] (setting [3]), the “At -80 °C for 48 h, Mean±SD” value came to 100.58 ± 11.11 nM; the “At -80 °C for 48 h, RE” value came to 13.37%; the “Extracted samples … Mean±SD” value came out at 93.83 ± 2.15 nM; the “Extracted samples at 8 °C for 18 h, RE” value is on record as -8.56%. For the same compound, in data set [1] (setting [3]), the “Short-term stability … Mean±SD” value is 96.37 ± 9.64 nM; the “Short-term stability … for 6 h, RE” value is -10.30%; the “Three freeze-thaw cycles … Mean±SD” value is 101.34 ± 13.26 nM; the “Three freeze-thaw cycles (-80 °C ↔ 23 °C), RE” value is on record as -13.01%. Besides, in data set [1] (setting [4]), the “At -80 °C for 48 h, Mean±SD” value was found to be 428.42 ± 28.06 nM; the “At -80 °C for 48 h, RE” value is given as 14.40%; the “Extracted samples … Mean±SD” value stood at 392.21 ± 39.26 nM; the “Extracted samples at 8 °C for 18 h, RE” value is -12.43%. In data set [1] (setting [4]), the “Short-term stability … Mean±SD” value is 357.16 ± 4.75 nM; the “Short-term stability … for 6 h, RE” value is recorded as -11.69%; the “Three freeze-thaw cycles … Mean±SD” value is 398.07 ± 39.06 nM; the “Three freeze-thaw cycles (-80 °C ↔ 23 °C), RE” value is -10.52%.

For `O=C1CCC[C@@H]2[C@H]3CCC[N+]4([O-])CCC[C@@H](CN12)[C@@H]34` (stereo partly drawn) [Compound A3, Oxymatrine], the IC50 is more than 100 µM on CYP2B6 (IC50 towards CYP2B6, recombinant isozyme); more than 100 µM at CYP2C8 (IC50 towards CYP2C8, recombinant isozyme); more than 100 µM at CYP2E1. For the same compound, the “Three freeze-thaw cycles … Mean±SD” value in data set [1] (rat, 80 nM) was 82.92 ± 3.13 nM; in data set [1] (rat, 400 nM) it was 406.54 ± 20.44 nM; in data set [1] (rat, 1600 nM) it was 1588.35 ± 117.83 nM. Moreover, the “Short-term stability … Mean±SD” value in data set [1] (rat, 6 h, 80 nM) came out at 81.69 ± 3.23 nM; in data set [1] (rat, 6 h, 400 nM) it was 391.75 ± 44.05 nM; in data set [1] (rat, 6 h, 1600 nM), 1629.42 ± 112.91 nM. Also, the “Extracted samples … Mean±SD” value in data set [1] (rat, 18 h, 80 nM) stood at 76.52 ± 2.34 nM; in data set [1] (rat, 18 h, 400 nM) it was 410.83 ± 21.99 nM; in data set [1] (rat, 18 h, 1600 nM) it was 1553.29 ± 127.31 nM. Also, the “At -80 °C for 48 h, Mean±SD” value amounted to 83.89 ± 6.74 nM in data set [1] (rat, 48 h, 80 nM); 422.79 ± 10.74 nM in data set [1] (rat, 48 h, 400 nM); 1578.58 ± 168.35 nM in data set [1] (rat, 48 h, 1600 nM).

As usually defined, the IC50 is the point on the concentration scale where inhibition reaches its midpoint.
